Drawing on PubChem BioAssay (NCI), this text covers TGI and GI50 for 13 compounds.

Molecules are shown by their SMILES.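 48-hour exposure; five concentrations; linearly interpolated endpoints. At the GI50, growth is halved. At the TGI there is no net growth.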

What all share (experiment): NCI-60 cell line screen, 48 h
Assay [1] relates to A549 NSCLC.
In assay [2] the test system is CCRF-CEM leukemia.
In assay [3] the test system is EKVX NSCLC.
The test system of assay [4] is IGROV1 ovarian.
In assay [5] the test system is OVCAR-8 ovarian.
The subject of assay [6] is SK-MEL-5 melanoma.
For assay [7], the system named is SN12C renal.
In assay [8] the test system is UACC-257 melanoma.
For assay [9], the system named is HCT-116 colon.
For assay [10], the system named is LOX IMVI melanoma.

As for `COC(=O)C12C3C4C1C1C2C3C41I` (stereo not given), the TGI in assay [1], in [2], in assay [3], in assay [4], in assay [5] and in [6] was over 100 µM each time. Further, the TGI in assay [7] and in assay [8] was over 100 µM each time.
Consider `O=C1c2cccc3cc([N+](=O)[O-])cc(c23)C(=O)N1CCCN1CCN(CCCN2C(=O)c3cccc4cc([N+](=O)[O-])cc(c34)C2=O)CC1`, for which the TGI in assay [1] is over 100 µM; in assay [2], over 100 µM; in assay [3], over 100 µM; in assay [9] it was 1.34 µM; in [4], 15.4 µM; in assay [5], over 100 µM. For the same compound, the TGI is 2.37 µM in [6], over 100 µM in assay [7] and 8.97 µM in assay [8].
As to `COC(=O)c1ccc(OCc2ccc3oc(=O)c(-c4ccccc4)nc3c2)cc1`, the TGI in assay [1] is over 100 µM; in [2], 72.7 µM; in assay [3], over 100 µM; in [9] it was over 100 µM; in assay [10], over 100 µM; in assay [5], over 100 µM. Further, the TGI in assay [6], in assay [7] and in [8] was over 100 µM throughout.
`OC1CCC(C2C3CCCCC3C3CCCCC3C2C2CCC(O)CC2)CC1` (stereo not given): the TGI in assay [1] is over 100 µM; in [3] it was over 100 µM; in assay [9] it was over 100 µM; in assay [4] it was 12.8 µM; in [5], 20.4 µM; in assay [6] it was 23.5 µM. Moreover, the TGI in assay [7] is over 100 µM; in assay [8], 33.4 µM.
Consider `Cc1ccc(N2C(=O)C(Cl)=C(Nc3cccc(O)c3)C2=O)cc1Cl`, for which the GI50 in assay [1] was 12.8 µM; in assay [2], 18.5 µM; in assay [9] it was 13.9 µM; in assay [4], 31.5 µM; in assay [10], 16.4 µM; in assay [5] it was 16.8 µM. The GI50 in assay [6] is 15 µM; in assay [7], 19.7 µM. Further, the TGI in assay [1] is 29.7 µM; in assay [2], 46.8 µM; in assay [9], 27.8 µM; in [4], over 100 µM; in assay [10], 33.2 µM; in [5], 43.5 µM. Moreover, the TGI in assay [6] was determined as 28.9 µM; in assay [7], 44.1 µM.
As to `C=C1C(O)C2C(=C(CC(C)C)C13CC3)C(=O)C(C)(C)C2OC` (stereo not given), the GI50 is over 100 µM in assay [1]; 86.6 µM in assay [2]; over 100 µM in assay [3]; 81.5 µM in assay [9]; over 100 µM in assay [10]; over 100 µM in [5]. The GI50 in assay [6], in [7] and in [8] was over 100 µM each time. Also, the TGI in [1], in [2], in assay [3], in assay [9], in [10] and in assay [5] was over 100 µM in each case. The TGI in assay [6], in [7] and in [8] was over 100 µM in each case.
For the compound `Cc1ccc(C)c(NC(=O)/C(=N\NC(N)=S)C(C#N)c2ccccc2)c1` (stereo not given), the TGI in assay [1], in [2], in assay [3], in [9], in assay [4] and in assay [5] was over 100 µM in each case. Further, the TGI in [6], in [7] and in [8] was over 100 µM throughout.
With `CCOC(=O)c1c2ccc(/C=C/C(=O)OC)ccc-2c(C(=O)OCC)c1N`, the TGI in assay [1], in [2], in [3], in assay [4], in assay [10] and in assay [6] was over 100 µM each time. Besides, in assay [8], the TGI is over 100 µM.
Turning to `CN(C)CN1C(=O)S/C(=C2\C(=O)N(CN(C)C)c3ccccc32)C1=O`, the TGI in assay [1] is over 100 µM; in [3], over 100 µM; in assay [9], over 100 µM; in assay [4], over 100 µM; in assay [10], 73.2 µM; in assay [5] it was over 100 µM. The TGI in assay [6] is over 100 µM; in assay [7] it was 69.4 µM; in assay [8], over 100 µM.
With `C=C(CNCCO)[C@@H]1CC[C@]2(CO)CC[C@]3(C)[C@H](CC[C@@H]4[C@@]5(C)CCC(NCCc6ccc(O)cc6)C(C)(C)[C@@H]5CC[C@]43C)[C@@H]12` (stereo not given in full), the GI50 was 1.43 µM in [1]; 0.5 µM in assay [2]; 1.46 µM in [3]; 1.64 µM in [4]; 1.18 µM in assay [10]; 1.46 µM in [5]. Moreover, the GI50 in [6] is 1.69 µM; in [7], 1.69 µM; in assay [8] it was 1.7 µM. Also, the TGI in [1] was 2.74 µM; in assay [2], 2.68 µM; in assay [3], 3.11 µM; in [4], 3.55 µM; in [10] it was 2.63 µM; in assay [5] it was 2.8 µM. Further, the TGI in assay [6] stood at 3.13 µM; in assay [7], 3.19 µM; in assay [8] it was 3.08 µM.
On to `CN(C)CCNC(=O)c1cccc(CO)c1[N+](=O)[O-]`, for which the TGI in assay [1], in assay [2], in assay [9], in assay [4], in assay [5] and in [6] was over 100 µM in each case. Moreover, the TGI in assay [7] and in [8] was over 100 µM in each case.
In the case of `COC1C(=O)CCC2(CO2)C1(O)C1(C)OC1CCC(C)C` (stereo not given), the TGI in assay [2], in assay [3], in assay [9], in assay [4], in assay [5] and in assay [6] was over 100 µM each time. Moreover, the TGI in [7] and in assay [8] was over 100 µM in each case.
As for `c1cc2c(cnc3cscc32)s1`, the TGI in assay [1], in [2], in assay [9], in assay [10], in assay [5] and in [6] was over 100 µM each time. For the same compound, the TGI in [7] and in assay [8] was over 100 µM each time.
